Legend:
[1] = system: Arabidopsis thaliana Col-0 roots; test: [ROS]intra burst in roots, DCFH-DA fluorescent probe; format: cell-based; settings: mix of homologues, 10 µM, fold change at 20 min vs mock (DMSO 0.1%); n = 9 from three independent experiments; Figure 2B,C
Experimental: For cytoplasmic hydrogen peroxide (reflecting cytosolic/intracellular ROS and referred to hereafter as [ROS]intra) measurement in roots, 15 mm long Arabidopsis thaliana root segments, isolated from different two-week-old plants, were placed in a well (one root/well) of a microplate (96 Flat Black-Greiner Bio-One^TM CellStar^TM, Thermo Fisher Scientific, Hampton, VA, USA) filled with sterile water. After overnight incubation, roots were treated with 50 µM DCFH-DA (dichloro-dihydro-fluorescein diacetate; ACROS Organics, Geel, Belgium) for 10 min in the dark and rinsed with PBS, and next, wells were filled with CLP/mock solution. Fluorescence measurements (excitation wavelength 492 nm, emission wavelength 530 nm) were conducted by a Spark® (Tecan, Männedorf, Switzerland) microplate reader, using nine readings per well. Data, expressed as relative fluorescence increase, were obtained by subtracting the fluorescence measured at the first time point from the fluorescence measured at each time point (with the first time point being taken as 0). The fluorescence fold increase was defined for each repeat as the ratio between the fluorescence increase obtained at one time point for treatments and the mean fluorescence increase obtained at the same time point in mock-treated tissues.

[2] = system: protoplasts isolated from roots of Arabidopsis thaliana Col-0; test: [ROS]intra burst in root protoplasts, DCFH-DA; format: cell-based; settings: 10 µM, fold increase in fluorescence at 5 min; n = 12 from three independent experiments; Figure 2D
Experimental: Two-week-old Arabidopsis thaliana seedling roots (from 27 mg seeds) were collected and were cut into 1–2 mm segments and incubated in a protoplasting solution (20 mM MES pH 5.7, 0.4 M mannitol, 20 mM KCl, 10 mM CaCl2, 0.1% (w/v) BSA, 1.5% (w/v) cellulase R10 (Duchefa Biochemie, Haarlem, The Netherlands), 0.4% (w/v) macerozyme R10 (Duchefa Chimie)) for 3 h at room temperature and in the dark. After incubation, 1 mL of solution A (154 mM NaCl, 5 mM KCl, 125 mM CaCl2, 4 mM MES, pH = 5.7) was added inside. The suspension was agitated gently and filtered by a 70 µm pore filter to remove extra root debris. Filtered suspension was centrifuged at 850 g for 6 min at room temperature, and the pelleted protoplasts were rinsed three times with solution B (4 mM MES pH 5.7, 154 mM NaCl, 125 mM CaCl2, 5 mM KCl) before being resuspended in solution C (2 mM MES pH 5.7, 0.5 M mannitol, 20 mM KCl, 2 mM CaCl2) at a working concentration of 1–2 × 10^5 cells per mL. For [ROS]intra measurements in protoplasts, protoplasts isolated from roots of Arabidopsis thaliana Col-0 plants were incubated for 10 min with 5 µM of DCFH-DA. Then, wells of black 96-well microplates (96 Flat Black-Greiner Bio-One^TM CellStar^TM, Fischer Scientific) were loaded with 150 µL of protoplasts solution per well. After the addition of 50 µL of four-times-concentrated treatment, the fluorescence was recorded every minute using a microplate reader with an excitation filter at 485 ± 20 nm and emission filter at 535 ± 25 nm. The data were processed as for the roots.

[3] = system: Arabidopsis thaliana root protoplasts; test: NO burst in root protoplasts, DAF-DA probe; format: cell-based; settings: 10 µM, fold change at 20 min vs mock; n = 12; Figure 3C; in roots Srf and Liche increased NO, Pumi had no impact
Experimental: Two-week-old Arabidopsis thaliana seedling roots (from 27 mg seeds) were collected and were cut into 1–2 mm segments and incubated in a protoplasting solution (20 mM MES pH 5.7, 0.4 M mannitol, 20 mM KCl, 10 mM CaCl2, 0.1% (w/v) BSA, 1.5% (w/v) cellulase R10 (Duchefa Biochemie, Haarlem, The Netherlands), 0.4% (w/v) macerozyme R10 (Duchefa Chimie)) for 3 h at room temperature and in the dark. After incubation, 1 mL of solution A (154 mM NaCl, 5 mM KCl, 125 mM CaCl2, 4 mM MES, pH = 5.7) was added inside. The suspension was agitated gently and filtered by a 70 µm pore filter to remove extra root debris. Filtered suspension was centrifuged at 850 g for 6 min at room temperature, and the pelleted protoplasts were rinsed three times with solution B (4 mM MES pH 5.7, 154 mM NaCl, 125 mM CaCl2, 5 mM KCl) before being resuspended in solution C (2 mM MES pH 5.7, 0.5 M mannitol, 20 mM KCl, 2 mM CaCl2) at a working concentration of 1–2 × 10^5 cells per mL. For the detection of intracellular NO, roots were processed as described above and 200 µL sterile water was replaced by 200 µL 5 μM DAF-DA in a buffered solution (10 mM Tris/HCl, pH = 7.4). Roots were incubated at room temperature for 1 h in the absence of light and then washed 3 times with Tris/HCl (10 mM, pH = 7.4). The fluorescence emitted by DAF-DA was detected by excitation at 495 nm and emission at 515 nm. Experiments where NO was measured after pretreatment with the calcium channel blocker or calcium chelator included an additional step where LaCl3 (10 mM; Merck Chemicals SA, Hoeilaart, Belgium) or EGTA (1 mM; Merck Chemicals SA, Hoeilaart, Belgium) was added three minutes before treatments. Data were processed as described above for ROS. For NO measurements in protoplasts, the suspension was incubated in the same conditions before being distributed (50 µL) in microplate wells and treated with the CLPs at a 10 µM final concentration or with 0.1% DMSO as a mock.

Botrytis cinerea = test: Induced systemic resistance (ISR) against B. cinerea leaf infection after root treatment; format: in vivo; settings: Arabidopsis thaliana Col-0, hydroponic, 10 µM at roots 24 h before leaf infection, scored 4 dpi vs mock (0.1% EtOH); n = 30 from two independent experiments; Figure 5
Experimental: Plants were grown for 4 weeks in hydroponic conditions in Araponics systems containing a nutrient solution (0.25% (v/v) FLORAMICRO®, 0.25% (v/v) FLORABLOOM®, 0.25% (v/v) FLORAGRO®; General Hydroponics®, in volume ratio 1:1:1, as recommended by the manufacturer), with a photoperiod of 12 h and a temperature of 22 °C. Plants were then transferred into 10 mL vials filled with fresh nutrient solution and treated at the root level with CLPs or ethanol (mock treatment) to obtain final concentrations of 10 µM and 0.1%, respectively. After incubation for 24 h, plants were inoculated with Botrytis cinerea (Helotiales: Sclerotiniaceae) as the conidia solution. Spores were collected from B. cinerea grown on PDA plates for 4 weeks using a solution composed of 1.75 g/L KH2PO4; 0.74 g/L MgSO4; 4 g/L glucose, and 0.02% (v/v) Tween 20. After spore collection, the concentration was adjusted to 5 × 10^5 spores per mL, and spores were incubated at 30 °C for eight hours. Inoculation was conducted by inoculating a drop of 3 µL of conidia solution onto seven leaves per plant and fifteen plants per treatment. The number of spreading lesions was evaluated 96 h post infection.

Substance | [ROS]intra production in roots vs mock [1] | [ROS]intra burst in root protoplasts vs mock [2] | NO burst in root protoplasts, trend compared to roots [3] | Leaf infection by B. cinerea (disease level) after root treatment (Botrytis cinerea)
lichenysin | induced a significantly higher production of [ROS]intra | significant boosting activity | very similar trend | significantly reduced leaf infection
pumilacidin | did not retain any significant triggering activity | not active | very similar trend | no disease reduction
surfactin [Srf] | induced a significantly higher production of [ROS]intra | significant boosting activity | very similar trend | significantly reduced leaf infection

Reference: PMC12562324, “Surfactin Structural Variants Differentially Modulate Plant Immune Responses” (Biomolecules, 2025)
